Assay results from patent publication US11319289B2, “5-hydroxy pyridine-based compound for use as P2X1 and P2X3 receptor antagonist and pharmaceutical composition comprising same” (GWANGJU INSTITUTE OF SCIENCE AND TECHNOLOGY, priority 2017, dated 2022).

Tests used:
[1] = Metabolic stability in microsomes, human; assay type: in vitro ADME; details: 30 min
[2] = Metabolic stability in microsomes, mouse; assay type: in vitro ADME; details: 30 min
[3] = Plasma protein binding by rapid equilibrium dialysis, human; assay type: in vitro ADME; details: plasma (50% in PBS)
Procedure: (§1) Plasma protein binding was measured by rapid equilibrium dialysis (RED). A DMSO stock solution of the compounds was prepared at a concentration of 10 mM and diluted to a concentration of […] with 50% plasma in phosphate buffered saline (PBS, pH 7.4). Plasma samples (100 μL) and PBS (300 μL) were added to the sample chamber and the buffer chamber, respectively, after which the RED device was turn on and the samples were incubated in a shaking incubator at 37° C. for 4 hours. After dialysis, 50 μl aliquots were collected from each side of the chamber. 50 μl of blank plasma was added to the buffer sample, and 50 μl of PBS was also added to the plasma sample. 200 μL of acetonitrile containing an internal standard was added to each sample. The samples were centrifuged at 3200 g for 20 minutes at 4° C., and the supernatants were obtained and analyzed by an LC-MS/MS system. The plasma protein binding rate was calculated as follows: Free form (%)=(Buffer chamber/Plasma chamber)×100 Bound form (%)=100−Free form (%).

[4] = Plasma protein binding by rapid equilibrium dialysis, rat; assay type: in vitro ADME; details: plasma (50% in PBS), pH 7.4, read-out: Plasma protein binding rate, Rat (converted)
Procedure: as §1

[5] = molecular target: T1, human P2X3 receptor (hP2X3) (Homo sapiens, UniProt P56373); assay: Two-electrode voltage clamp assay, recombinant hP2X3 receptor in Xenopus oocytes; assay type: cell-based; details: for IC50: 2 μM ATP-evoked current, Xenopus oocytes, mean±SEM n≥3 (footnote d)
T1 construct: expressed in transfected cells; host or cells: Xenopus oocytes (cRNA microinjection)
T1 sequence (P56373 1-397): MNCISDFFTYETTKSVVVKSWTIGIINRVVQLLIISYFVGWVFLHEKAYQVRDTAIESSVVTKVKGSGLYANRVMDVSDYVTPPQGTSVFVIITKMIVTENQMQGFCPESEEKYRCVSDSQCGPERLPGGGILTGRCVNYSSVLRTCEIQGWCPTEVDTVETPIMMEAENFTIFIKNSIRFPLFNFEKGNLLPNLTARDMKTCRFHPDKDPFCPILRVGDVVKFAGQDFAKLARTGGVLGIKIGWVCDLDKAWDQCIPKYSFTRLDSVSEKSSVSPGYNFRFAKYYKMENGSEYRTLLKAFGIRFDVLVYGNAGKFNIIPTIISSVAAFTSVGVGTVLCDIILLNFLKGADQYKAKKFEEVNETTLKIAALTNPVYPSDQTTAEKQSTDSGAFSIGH
Procedure: 1-1. Two-Electrode Voltage Clamp Assay for Recombinant mP2X1 and hP2X3 Receptors
Xenopus oocytes were isolated and incubated with 270 U/mg of collagenase at 23 to 24° C. for 1.5 hours. Defolliculated oocytes were kept in Barth's solution at 18° C. After 1 day, the defolliculated oocytes were each microinjected cytosolically with mP2X1 and human P2X3 receptor cRNA ([…], 1 μg/mL), incubated for 24 hours at 18° C. in Barth's solution. The cRNA-injected oocytes were kept for 12 days at 4° C. ATP-activated membrane currents (Vh=−70 mV) were recorded from the cRNA-injected oocytes using the two-electrode voltage clamp technique (Axoclamp 2B amplifier). Voltage recording ([…] tip resistance) and current-recording microelectrodes (5 MΩ tip resistance) were filled with 3.0 M KCl. Oocytes were placed in an electrophysiological chamber continuously superfused with Ringer's solution (5 mL/min, at 18° C.) containing 110 mM NaCl, 2.5 mM KCl, 5 mM HEPES and 1.8 mM BaCl2, with pH adjusted to 7.5. To induce an evoked current, 2 μM ATP was superfused for 60 to 120 seconds and then washed for 20 min. For data analysis, the ATP-evoked current was normalized at pH 7.5. The compounds were introduced to the fixed oocytes 20 minutes prior to ATP exposure in the electrophysiological chamber. IC50 values (the concentration of the compound required to inhibit the ATP response by 50%) were determined by Hill plots designed using the Chemical Formula: log(I/Imax−1), where I is the current evoked by ATP in the presence of an antagonist. Data are presented as mean±SEM (n≥3) from different batches of oocytes.
In order to investigate the structure-activity relationship (SAR) of the compounds synthesized in the present invention, the antagonistic activity was evaluated by a two-electrode voltage clamp (TEVC) assay in Xenopus oocytes expressing the recombinant mP2X1 or hP2X3, respectively. The hP2X7R antagonistic activity was assessed using an ethidium ion accumulation assay in human HEK293 cells stably expressing the recombinant human P2X7R.

[6] = pH 7.4, human plasma, read-out: Plasma protein binding rate, Human (converted)

| Metabolic stability, microsomes, Human [1] | Metabolic stability, microsomes, Mouse [2] | fraction unbound at 4 h, 5 µM [3, 6] | fraction unbound at 4 h, 5 µM [4] | IC50 [5] | fraction unbound at 4 h, 5 µM ([3]; pH 7.4, species not given, read-out: plasma protein binding) | selectivity for hP2X3R to mP2X1R ([5]; hP2X3R versus mP2X1R) | SMILES |
| --- | --- | --- | --- | --- | --- | --- | --- |
| 0 % remaining after 30 min | 35 % remaining after 30 min | 0.005 | 0.675 | – | – | – | CCCc1nc(Cc2cccc(Oc3ccccc3)c2)c(C)c(C(=O)OC)c1O [Compound 28, Methyl 3-hydroxy-5-methyl-6-(3-phenoxybenzyl)-2-propylisonicotinate] |
| 3 % remaining after 30 min | 2 % remaining after 30 min | 0.001 ± 6.01e-07 | 0.002 | 245 nM | < 0.01 | – | CCCc1nc(Cc2cccc(Oc3ccccc3)c2)c(C)c(C(=O)O)c1O [Compound 29, 3-Hydroxy-5-methyl-6-(3-phenoxybenzyl)-2-propylisonicotinic acid] |
| – | – | – | – | 93 nM | – | about 100 fold | CCCc1nc(CCc2ccc(OC)cc2)c(C(=O)O)c(C(=O)O)c1O [Compound 13d, 5-Hydroxy-2-(4-methoxyphenethyl)-6-propylpyridine-3,4-dicarboxylic acid] |
